The results in this text go back to patent publication US8791264B2 (Purdue Pharma L.P., priority 2006, dated 2014).

The target of the test is T1, N-type calcium channel (NTCC) (Homo sapiens, UniProt Q00975).
T1 construct: host or cells: IMR32 cells differentiated with dibutyryl cAMP and bromodeoxyuridine
As to the kind of experiment: FLIPR calcium mobilization assay for N-type calcium channel. Format: cell-based. To be noted: calcium mobilization in vitro assay; differentiated IMR32 cells. Here is the method: Unless noted otherwise, cell culture reagents were purchased from Mediatech of Herndon, Md. IMR32 cells (American Type Culture Collection, ATCC, Manassas, Va.) were routinely cultured in growth medium consisting of minimum essential medium containing 10% fetal bovine serum (FBS, Hyclone, Logan, Utah), 100 U/mL penicillin, 100 μg/mL streptomycin, 2 mM L-glutamine, 1 mM sodium pyruvate, and 1× MEM non-essential amino acids. 80-90% confluent flasks of cells were differentiated using the following differentiation medium: Growth medium plus 1 mM dibutyryl cyclic AMP (Sigma, St. Louis, Mo.), and 2.5 μM bromodeoxyuridine (Sigma). Cells were differentiated for 8 days by replacing differentiation medium every 2-3 days.
FLIPR Calcium Mobilization Assay for N-Type Calcium Channel.
One day prior to performing this assay, differentiated IMR32 cells were treated with 1× CellStripper, and seeded on poly-D-lysine-coated 96-well clear-bottom black plates (Becton Dickinson, Franklin Lakes, N.J.) at 200,000 cells/well. On the day of the assay, the cell plates were washed with IMR32 buffer (127 mM NaCl, 1 mM KCl, 2 mM MgCl2, 700 μM NaH2PO4, 5 mM CaCl2, 5 mM NaHCO3, 8 mM HEPES, 10 mM glucose, pH 7.4), then pre-stimulated with KCl and loaded as follows: 0.05 mL of IMR32 buffer, 0.05 mL of each compound tested diluted in IMR32 buffer containing 20 μM nitrendipine (Sigma), and 0.1 mL KCl dissolved in IMR32 buffer, plus Fluo-4 were added (3 μM final concentration, Molecular Probes, Eugene, Oreg.). Final test compound concentrations ranged from about 846 pM to about 17 μM, final nitrendipine concentration was 5 μM, and final KCl concentration was 90 mM. After 1 hour, the cells were washed twice with 0.05 mL of each compound is tested in nitrendipine-containing IMR32 buffer (no KCl or Fluo-4), and then replaced with 0.1 mL of each compound tested in nitrendipine-containing IMR32 buffer. Plates were then transferred to a Fluorimetric Imaging Plate Reader (FLIPR^96, Molecular Devices, Inc., Sunnyvale, Calif.) for assay. The FLIPR measured basal Fluo-4 fluorescence for 315 seconds (i.e., 5 minutes and 15 seconds), then added 0.1 mL KCl agonist dissolved in IMR32 buffer and measured fluorescence for another 45 seconds. Final test compound concentrations on the cells after FLIPR read ranged from about 846 pM to about 17 μM, final nitrendipine concentration was 5 μM, and final KCl concentration was 90 mM. Data were collected over the entire time course and analyzed using Excel, Graph Pad Prism (version 3.02, Graph Pad, San Diego, Calif.), or an in-house non-linear regression analysis software.
In general terms: Calcium assays in cells follow changes in intracellular calcium, usually with a dye or a luminescent sensor.

T1 sequence (Q00975 whole entry): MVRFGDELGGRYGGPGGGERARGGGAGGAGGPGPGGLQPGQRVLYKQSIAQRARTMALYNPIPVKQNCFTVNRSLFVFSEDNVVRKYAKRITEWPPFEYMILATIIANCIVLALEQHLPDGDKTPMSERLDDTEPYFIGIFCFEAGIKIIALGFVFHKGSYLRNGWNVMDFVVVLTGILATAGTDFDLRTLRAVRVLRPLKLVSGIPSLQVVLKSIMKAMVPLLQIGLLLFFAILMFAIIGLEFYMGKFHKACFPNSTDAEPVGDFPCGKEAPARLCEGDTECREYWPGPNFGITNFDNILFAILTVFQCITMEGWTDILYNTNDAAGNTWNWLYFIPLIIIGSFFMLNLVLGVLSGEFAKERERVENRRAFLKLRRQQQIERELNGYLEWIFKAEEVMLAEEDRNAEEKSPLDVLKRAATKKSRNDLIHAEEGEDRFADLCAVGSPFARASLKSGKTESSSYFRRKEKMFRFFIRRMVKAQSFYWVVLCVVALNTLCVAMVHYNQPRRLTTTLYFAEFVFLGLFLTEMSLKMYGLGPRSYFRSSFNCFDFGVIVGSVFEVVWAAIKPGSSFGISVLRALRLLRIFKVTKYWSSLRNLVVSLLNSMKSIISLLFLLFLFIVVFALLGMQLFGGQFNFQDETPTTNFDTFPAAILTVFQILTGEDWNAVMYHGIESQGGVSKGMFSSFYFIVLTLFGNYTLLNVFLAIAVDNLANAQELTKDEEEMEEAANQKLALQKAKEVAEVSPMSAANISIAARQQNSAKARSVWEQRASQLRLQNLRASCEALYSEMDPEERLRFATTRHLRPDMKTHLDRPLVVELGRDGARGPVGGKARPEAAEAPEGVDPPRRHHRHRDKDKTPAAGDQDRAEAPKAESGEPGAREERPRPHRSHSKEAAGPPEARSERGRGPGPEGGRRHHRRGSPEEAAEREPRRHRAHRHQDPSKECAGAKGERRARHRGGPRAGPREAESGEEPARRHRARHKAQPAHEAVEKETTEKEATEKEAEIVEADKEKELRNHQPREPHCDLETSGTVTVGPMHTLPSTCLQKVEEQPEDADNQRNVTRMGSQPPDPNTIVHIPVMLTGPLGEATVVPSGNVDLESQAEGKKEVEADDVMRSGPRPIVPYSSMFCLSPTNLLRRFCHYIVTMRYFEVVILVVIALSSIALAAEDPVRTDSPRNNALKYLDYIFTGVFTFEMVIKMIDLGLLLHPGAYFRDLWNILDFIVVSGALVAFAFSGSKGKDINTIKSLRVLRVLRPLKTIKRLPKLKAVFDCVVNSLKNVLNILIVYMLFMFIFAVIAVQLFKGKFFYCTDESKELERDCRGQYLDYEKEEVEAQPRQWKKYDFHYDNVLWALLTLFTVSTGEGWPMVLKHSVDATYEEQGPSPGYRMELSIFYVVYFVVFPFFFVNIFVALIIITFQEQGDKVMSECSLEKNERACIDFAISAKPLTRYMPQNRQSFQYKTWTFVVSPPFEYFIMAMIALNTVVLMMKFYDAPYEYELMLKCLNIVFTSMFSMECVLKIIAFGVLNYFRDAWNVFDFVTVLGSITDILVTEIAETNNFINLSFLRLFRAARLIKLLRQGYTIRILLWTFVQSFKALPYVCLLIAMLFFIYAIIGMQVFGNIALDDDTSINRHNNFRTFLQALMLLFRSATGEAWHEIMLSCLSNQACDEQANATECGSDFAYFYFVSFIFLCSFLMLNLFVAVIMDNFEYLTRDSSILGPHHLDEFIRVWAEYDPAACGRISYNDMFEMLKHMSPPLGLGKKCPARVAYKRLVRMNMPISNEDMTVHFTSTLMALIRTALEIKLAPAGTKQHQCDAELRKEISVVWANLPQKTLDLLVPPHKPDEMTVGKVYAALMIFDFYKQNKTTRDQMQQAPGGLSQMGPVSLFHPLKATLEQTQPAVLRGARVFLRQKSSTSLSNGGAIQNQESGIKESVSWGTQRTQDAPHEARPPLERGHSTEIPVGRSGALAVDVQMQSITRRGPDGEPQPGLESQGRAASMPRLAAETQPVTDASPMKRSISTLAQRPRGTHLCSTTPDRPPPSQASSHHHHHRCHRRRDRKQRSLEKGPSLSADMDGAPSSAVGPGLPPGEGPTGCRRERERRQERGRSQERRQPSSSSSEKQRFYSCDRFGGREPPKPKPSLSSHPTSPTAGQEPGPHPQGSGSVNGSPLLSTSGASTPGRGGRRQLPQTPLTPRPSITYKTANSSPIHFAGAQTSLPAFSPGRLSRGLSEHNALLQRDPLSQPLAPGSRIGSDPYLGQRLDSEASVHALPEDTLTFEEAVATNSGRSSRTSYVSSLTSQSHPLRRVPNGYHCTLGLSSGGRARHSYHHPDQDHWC
T1 sequence (P54289 25-956 partner limits assumed): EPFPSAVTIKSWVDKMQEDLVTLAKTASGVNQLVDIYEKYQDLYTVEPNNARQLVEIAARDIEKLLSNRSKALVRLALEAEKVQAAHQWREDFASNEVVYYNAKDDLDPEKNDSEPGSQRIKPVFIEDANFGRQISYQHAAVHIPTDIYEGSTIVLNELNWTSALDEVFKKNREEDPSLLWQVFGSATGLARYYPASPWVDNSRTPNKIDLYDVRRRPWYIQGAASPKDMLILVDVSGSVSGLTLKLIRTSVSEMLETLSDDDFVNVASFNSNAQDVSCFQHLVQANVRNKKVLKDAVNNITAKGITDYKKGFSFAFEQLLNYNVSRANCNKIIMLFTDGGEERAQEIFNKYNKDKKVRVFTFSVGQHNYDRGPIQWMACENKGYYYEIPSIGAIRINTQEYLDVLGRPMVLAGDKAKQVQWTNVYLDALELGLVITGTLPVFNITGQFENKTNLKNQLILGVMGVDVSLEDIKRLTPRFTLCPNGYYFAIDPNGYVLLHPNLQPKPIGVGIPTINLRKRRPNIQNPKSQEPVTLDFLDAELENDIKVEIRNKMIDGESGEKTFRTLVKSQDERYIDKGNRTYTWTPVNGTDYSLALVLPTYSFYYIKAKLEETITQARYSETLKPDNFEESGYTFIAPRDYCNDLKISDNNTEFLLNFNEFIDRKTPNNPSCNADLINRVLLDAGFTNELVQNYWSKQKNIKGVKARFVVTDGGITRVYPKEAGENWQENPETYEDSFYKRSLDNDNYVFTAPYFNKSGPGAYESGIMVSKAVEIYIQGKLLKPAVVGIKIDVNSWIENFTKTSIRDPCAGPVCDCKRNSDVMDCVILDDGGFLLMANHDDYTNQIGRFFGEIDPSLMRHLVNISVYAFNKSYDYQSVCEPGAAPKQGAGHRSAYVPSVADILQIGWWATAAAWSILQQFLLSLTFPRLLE
T1 sequence (P54289 957-1103 partner limits assumed): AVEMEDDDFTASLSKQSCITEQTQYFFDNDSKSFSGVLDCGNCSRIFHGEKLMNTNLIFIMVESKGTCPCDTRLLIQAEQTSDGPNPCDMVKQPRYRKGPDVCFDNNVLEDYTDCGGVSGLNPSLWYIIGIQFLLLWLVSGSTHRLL
T1 sequence (P54284 whole entry partner): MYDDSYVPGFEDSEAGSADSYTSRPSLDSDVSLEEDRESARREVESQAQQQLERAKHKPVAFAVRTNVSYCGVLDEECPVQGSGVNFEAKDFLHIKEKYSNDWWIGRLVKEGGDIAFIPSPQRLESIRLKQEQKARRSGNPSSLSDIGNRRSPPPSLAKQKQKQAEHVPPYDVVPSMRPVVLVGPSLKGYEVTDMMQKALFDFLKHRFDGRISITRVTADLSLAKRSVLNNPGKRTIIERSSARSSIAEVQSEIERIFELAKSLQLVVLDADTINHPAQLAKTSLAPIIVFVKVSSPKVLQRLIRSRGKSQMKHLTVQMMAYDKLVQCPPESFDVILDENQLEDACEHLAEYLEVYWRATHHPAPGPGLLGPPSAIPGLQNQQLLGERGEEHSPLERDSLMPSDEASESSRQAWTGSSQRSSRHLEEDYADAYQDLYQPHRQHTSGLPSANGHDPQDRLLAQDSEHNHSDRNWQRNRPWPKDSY

As to “2-[4-(Benzenesulfonylmethylamino)-piperidin-1-yl]-N-(4-fluorophenyl)acetamide [Compound 47]”, the half-maximal inhibitory concentration (IC50) is 2950 nM.
With `CC(C)CNC(=O)CN1CCC(N(C)S(=O)(=O)c2ccccc2)CC1` [2-[4-(benzenesulfonyl-methyl-amino)-piperidin-1-yl]-N-isobutyl-acetamide], the half-maximal inhibitory concentration (IC50) is > 20000 nM.
With `CC(C)NC(=O)C(=O)N1CCC(N(C2CC2)S(=O)(=O)c2cccc(C(F)(F)F)c2)CC1` [2-{4-[cyclopropyl-(3-trifluoromethylbenzenesulfonyl)-amino]-piperidin-1-yl}-N-isopropyl-2-oxo-acetamide], the IC50 is 3200 nM.
As to `CC(C)N(C1CCN(C(=O)CNc2ccc(F)cc2)CC1)S(=O)(=O)c1cccc(C(F)(F)F)c1` [Compound 17, N-{1-[2-(4-Fluorophenylamino)acetyl]-piperidin-4-yl}-N-isopropyl-3-trifluoromethylbenzenesulfonamide], the IC50 came to 1680 nM.
`O=C(CC(=O)N1CCC(N(C2CC2)S(=O)(=O)c2cccc(C(F)(F)F)c2)CC1)Nc1ccc(F)cc1F` [Compound 27, 3-{4-[Cyclopropyl-(3-trifluoromethylbenzenesulfonyl)amino]-piperidin-1-yl}-N-(2,4-difluorophenyl)-3-oxo-propionamide]: the IC50 amounted to 1330 nM.
The value for `CN(C1CCN(C(=O)CC(=O)Nc2ccc(F)cc2F)CC1)S(=O)(=O)c1cccc(C(F)(F)F)c1` [Compound 28, N-(2,4-Difluorophenyl)-3-{4-[methyl-(3-trifluoromethylbenzene-sulfonyl)amino]-piperidin-1-yl}-3-oxo-propionamide] was 4900 nM.
For `O=C(CC(=O)N1CCC(N(C2CC2)S(=O)(=O)c2cccc(Cl)c2)CC1)Nc1ccc(F)cc1F` [Compound 29, 3-{4-[(3-Chlorobenzenesulfonyl)-cyclopropylamino]-piperidin-1-yl}-N-(2,4-difluorophenyl)-3-oxo-propionamide] the value was 8860 nM; for `CC(C)N(C1CCN(CC(N)=O)CC1)S(=O)(=O)c1cccc(C(F)(F)F)c1` [Compound 33, 2-{4-[Isopropyl-(3-trifluoromethylbenzenesulfonyl)amino]-piperidin-1-yl}-acetamide], 10000 to 20000 nM.
For the compound `Cc1cccc(S(=O)(=O)N(C2CC2)C2CCN(CC(=O)NCC(C)C)CC2)c1` [Compound 35, 2-{4-[Cyclopropyl-(toluene-3-sulfonyl)amino]-piperidin-1-yl}-N-isobutylacetamide], the IC50 was found to be 5930 nM.
With `CC(C)CNC(=O)CN1CCC(N(C2CC2)S(=O)(=O)c2cccc(F)c2)CC1` [Compound 36, 2-{4-[Cyclopropyl-(3-fluorobenzenesulfonyl)amino]-piperidin-1-yl}-N-isobutylacetamide], the half-maximal inhibitory concentration (IC50) was 8000 nM.
As for `CC(C)CNC(=O)CN1CCC(N(C2CC2)S(=O)(=O)c2ccccc2)CC1` [Compound 37, 2-[4-(Benzenesulfonyl-cyclopropylamino)-piperidin-1-yl]-N-isobutylacetamide], the IC50 is > 20000 nM.
For `Cc1cccc(C)c1NC(=O)CN1CCC(N(C(C)C)S(=O)(=O)c2cccc(C(F)(F)F)c2)CC1` [Compound 42a, N-(2,6-Dimethylphenyl)-2-{4-[isopropyl-(3-trifluoromethylbenzenesulfonyl)amino]-piperidin-1-yl}-acetamide] the value was 1130 nM; for `Cc1ccc(NC(=O)CN2CCC(N(C(C)C)S(=O)(=O)c3cccc(C(F)(F)F)c3)CC2)cc1` [Compound 42e, 2-{4-[Isopropyl-(3-trifluoromethylbenzenesulfonyl)amino]-piperidin-1-yl}-N-p-tolyl-acetamide], 1630 nM.
The value for `Cc1cccc(S(=O)(=O)N(C2CC2)C2CCN(CC(=O)Nc3ccc(F)cc3)CC2)c1` [Compound 45, 2-{4-[Cyclopropyl-(toluene-3-sulfonyl)amino]-piperidin-1-yl}-N-(4-fluorophenyl)acetamide] was 1390 nM; that for `O=C(CN1CCC(N(C2CC2)S(=O)(=O)c2cccc(F)c2)CC1)Nc1ccc(F)cc1` [Compound 46, 2-{4-[Cyclopropyl-(3-fluorobenzenesulfonyl)amino]-piperidin-1-yl}-N-(4-fluorophenyl)acetamide] was 2030 nM; that for `O=C(CN1CCC(N(C2CC2)S(=O)(=O)c2ccccc2)CC1)Nc1ccc(F)cc1` [Compound 48, 2-[4-(Benzenesulfonylcyclopropylamino)-piperidin-1-yl]-N-(4-fluorophenyl)acetamide] was 2260 nM.
For `O=C(CN1CCC(N(C2CC2)S(=O)(=O)c2ccc(Cl)cc2)CC1)Nc1ccc(F)cc1` [Compound 49, 2-{4-[(4-Chlorobenzenesulfonyl)cyclopropylamino]-piperidin-1-yl}-N-(4-fluorophenyl)acetamide] the value was 1310 nM; for `CN(C1CCN(CC(=O)Nc2nc3ccc(F)cc3s2)CC1)S(=O)(=O)c1cccc(C(F)(F)F)c1` [Compound 65], 2160 nM; for `O=C(CN1CCC(N(C2CC2)S(=O)(=O)c2cccc(Cl)c2)CC1)Nc1cc(C(F)(F)F)cc(C(F)(F)F)c1` [Compound 66, N-(3,5-Bis-trifluoromethylphenyl)-2-{4-[(3-chlorobenzenesulfonyl)-cyclopropylamino]-piperidin-1-yl}-acetamide], 2530 nM.
As to `O=C(CN1CCC(N(C2CC2)S(=O)(=O)c2ccc(Cl)cc2)CC1)Nc1cc(C(F)(F)F)cc(C(F)(F)F)c1` [Compound 67, N-(3,5-Bis-trifluoromethylphenyl)-2-{4-[(4-chlorobenzenesulfonyl)-cyclopropylamino]-piperidin-1-yl}-acetamide], the IC50 was 4170 nM.
The value for `CN(C1CCN(CC(=O)Nc2cc(C(F)(F)F)cc(C(F)(F)F)c2)CC1)S(=O)(=O)c1ccccc1` [Compound 68, 2-[4-(Benzenesulfonyl-methyl-amino)-piperidin-1-yl]-N-(3,5-bis-trifluoromethylphenyl)-acetamide] was 1590 nM; that for `Cc1cccc(S(=O)(=O)N(C2CC2)C2CCN(CC(=O)Nc3cc(C(F)(F)F)cc(C(F)(F)F)c3)CC2)c1` [Compound 69, N-(3,5-Bis-trifluoromethylphenyl)-2-{4-[cyclopropyl-(toluene-3-sulfonyl)amino]-piperidin-1-yl}-acetamide] was 3810 nM; that for `O=C(CN1CCC(N(C2CC2)S(=O)(=O)c2cccc(C(F)(F)F)c2)CC1)Nc1ccc(C(F)(F)F)cc1C(F)(F)F` [Compound 72, N-(2,4-Bis-trifluoromethylphenyl)-2-{4-[cyclopropyl-(3-trifluoromethylbenzenesulfonyl)amino]-piperidin-1-yl}-acetamide] was > 20000 nM.
For `O=C(CN1CCC(N(C2CC2)S(=O)(=O)c2cccc(C(F)(F)F)c2)CC1)Nc1ccc(Cl)cc1OC(F)(F)F` [Compound 76, N-(4-Chloro-2-trifluoromethoxyphenyl)-2-{4-[cyclopropyl-(3-trifluoromethylbenzenesulfonyl)amino]-piperidin-1-yl}-acetamide] the value was 1830 nM.
Take `O=C(CN1CCC(N(C2CC2)S(=O)(=O)c2cccc(C(F)(F)F)c2)CC1)Nc1cc(C(F)(F)F)ccc1Cl` [Compound 77, N-(2-Chloro-5-trifluoromethylphenyl)-2-{4-[cyclopropyl-(3-trifluoromethylbenzenesulfonyl)amino]-piperidin-1-yl}-acetamide]: the IC50 is 6630 nM.
For `COc1ccc(Cl)cc1NC(=O)CN1CCC(N(C2CC2)S(=O)(=O)c2cccc(C(F)(F)F)c2)CC1` [Compound 82, N-(5-Chloro-2-methoxyphenyl)-2-{4-[cyclopropyl-(3-trifluoromethyl-benzenesulfonyl)amino]-piperidin-1-yl}-acetamide] the value was 3990 nM; for `COc1ccc(C(F)(F)F)cc1NC(=O)CN1CCC(N(C2CC2)S(=O)(=O)c2cccc(C(F)(F)F)c2)CC1` [Compound 83, 2-{4-[Cyclopropyl-(3-trifluoromethylbenzenesulfonyl)amino]-piperidin-1-yl}-N-(2-methoxy-5-trifluoromethylphenyl)-acetamide], 10000 to 20000 nM; for `COc1ccc(CN[C@H](C(=O)N2CCC(N(C(C)C)S(=O)(=O)c3cccc(C(F)(F)F)c3)CC2)C(C)C)cc1` [Compound 88a, (S)—N-Isopropyl-N-{1-[2-(4-methoxybenzylamino)-3-methylbutyryl]-piperidin-4-yl}-3-trifluoromethylbenzenesulfonamide], 1730 nM.

In general, IC50 refers to the concentration needed to halve the response being measured.
